Experimental data taken from patent publication US5352587A, “Compositions and methods for the synthesis of natriuretic protein receptor B and methods of use” (Genentech, Inc., priority 1991, dated 1994).
Blank lines part the entries; values can stand above or below the compound they belong to. Ends that are not written are not given here.

Key:
[1] = test system: membrane GC; conditions: literature refs 14, 15; cited from earlier work
[2] = test system: active site of protein kinases; conditions: literature refs 12, 13; cited from earlier work
[3] = target: 130 kDa ANP receptor-GC from adrenal glomerulosa; conditions: literature refs 10, 11; cited from earlier work
[4] = test system: soluble NPRB; assay: Binding to soluble NPRB extracellular domain (1-433) in concentrated conditioned medium; parameters: species or system human
Experimental: Soluble extracellular domain of NPRB was engineered by introducing a translation termination codon at position 434 to produce the 1-433 fragment of the NPRB sequence illustrated in FIG. 1. A stable cell line was developed in 293 cells as described for 293NPRBDKC, and clones were screened by binding of ^125 lBNP to receptor in condition medium. Control 293 cells or the stable cell line 293BCF.15 (NPRB cell free) were plated 24 hours prior to the addition of serum free conditioned medium. Medium was left on the cells for 72 hours then collected for analysis of the […] synthesized. The media was vacuum filtered through a […] filter (Millipore Corp) then concentrated 8-fold by ultrafiltration on an Amicon Corp centriprep YM30 membrane. A 0.5 ml sample of concentrated conditioned media was incubated for one hour in the presence of 0.25 mCi of ^125 l-pBNP(26) (2462 Ci/mmole) with (background binding) or without (total binding) 1.2 mM pBNP(26). A 1.0 ml sample of activated charcoal solution (Fuller et al. J. Biol. Chem. 264, 14179-14184 [1989]) was added to absorb unbound label and recovered by centrifugation. The supernatant (1.4 ml) was removed for determination of ^125 l-pBNP bound to receptor by gamma counting. Specific binding was calculated from the difference between total binding minus background binding. […]

[5] = target: T1, NPRB lacking its kinase and guanylyl cyclase domains (BDKC) (Homo sapiens, UniProt P20594); assay: Scatchard analysis of binding to 293 cells expressing NPRB less the kinase and cyclase domains (BDKC); conditions: two hours at room temperature (21° C.), LIGAND program, read-out: dissociation constant (Kd)
T1 construct: expressed in transfected cells
T1 sequence (P20594 23-501): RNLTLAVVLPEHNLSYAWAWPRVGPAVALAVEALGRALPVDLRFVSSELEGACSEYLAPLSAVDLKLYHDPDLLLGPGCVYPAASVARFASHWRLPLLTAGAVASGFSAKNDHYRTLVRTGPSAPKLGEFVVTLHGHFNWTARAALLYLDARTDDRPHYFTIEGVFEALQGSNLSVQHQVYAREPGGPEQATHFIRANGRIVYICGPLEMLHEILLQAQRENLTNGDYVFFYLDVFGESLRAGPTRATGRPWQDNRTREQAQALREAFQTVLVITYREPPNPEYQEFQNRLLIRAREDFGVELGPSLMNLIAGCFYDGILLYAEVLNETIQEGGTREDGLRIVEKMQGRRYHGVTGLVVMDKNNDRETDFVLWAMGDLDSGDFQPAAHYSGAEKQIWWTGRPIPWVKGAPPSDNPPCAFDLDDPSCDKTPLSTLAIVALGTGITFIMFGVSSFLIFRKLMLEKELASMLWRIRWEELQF
Description: Scatchard analysis was used to determine the binding affinities of the natriuretic peptides for NPRB. An expression vector using pRK was constructed such that the NPRB lacked its kinase and guanylyl cyclase domains. This mutation was effected by introduction of a termination codon at condo 480 of the mature NPRB protein. A recombinant cell line expressing NPRB less the kinase and cyclase domains (BDKC) was developed by calcium phosphate transfection of 293 cells as described above. These stable cell lines were screened for expression of BDKC by binding of porcine BNP which contained 26 amino acids (^125 l-pBNP[26]). […] Binding was allowed to proceed to equilibrium by incubation for two hours at room temperature (21° C.), the bound ^125 l-pBNP(26) was separated from unbound by centrifugation for 7 minutes at 4° C. The supernatant was aspirated and the cell pellet was counted in a gamma counter for ^125 l quantitation. Background binding was subtracted from total binding to give specific binding and the specific binding vs. dose of ^125 l-pBNA data was analyzed by the LIGAND program of Munson and Rodbard (Analytical Biochemistry 107, 220-239 [1980]). The results shown are in FIG. 5.

Compound: Nc1ncnc2c1ncn2[C@@H]1O[C@H](COP(=O)(O)OP(=O)(O)OP(=O)(O)O)[C@@H](O)[C@H]1O [ATP]
- effect on Vmax of membrane GC in response to ANP stimulation [1]: increasing the Vmax of membrane GC in response to ANP stimulation

Compound: N=C(N)NC(=O)c1nc(Cl)c(N)nc1N [amiloride]
- inhibition of ATP binding to the active site of protein kinases [2]: competitive inhibitor of ATP binding to the active site of protein kinases
- effect on receptor conformation and Kd for ANP [3]: change in receptor conformation and a lowering of the Kd for ANP

- Specific binding to soluble NPRB ([4]; 0.25 mCi ^125 l-pBNP(26), one hour, 8-fold concentrated conditioned medium): 31,837 cpm
- Kd [5]: 0.0667 nM
Compound: ^125 l-pBNP(26): porcine BNP which contained 26 amino acids, ^125 l labelled (DSGCFGRRLDRIGSLSGLGCNVLRRY; ends and bridges not checked; also: 125I label, position not given here; UniProt P07634 106-131, looked up)
- Specific binding due to the recombinant soluble receptor protein (difference from control 293 cells) ([4]; difference between soluble NPRB and control 293 cells): 29,177 cpm
